Data set [1] concerns the target T1, Bifidobacterium adolescentis fructose-6-phosphate phosphoketolase (H2), wild type, SEQ ID NO: 1 (Bifidobacterium adolescentis, UniProt A1A185).
T1 sequence (A1A185 with tags, fused parts or gaps): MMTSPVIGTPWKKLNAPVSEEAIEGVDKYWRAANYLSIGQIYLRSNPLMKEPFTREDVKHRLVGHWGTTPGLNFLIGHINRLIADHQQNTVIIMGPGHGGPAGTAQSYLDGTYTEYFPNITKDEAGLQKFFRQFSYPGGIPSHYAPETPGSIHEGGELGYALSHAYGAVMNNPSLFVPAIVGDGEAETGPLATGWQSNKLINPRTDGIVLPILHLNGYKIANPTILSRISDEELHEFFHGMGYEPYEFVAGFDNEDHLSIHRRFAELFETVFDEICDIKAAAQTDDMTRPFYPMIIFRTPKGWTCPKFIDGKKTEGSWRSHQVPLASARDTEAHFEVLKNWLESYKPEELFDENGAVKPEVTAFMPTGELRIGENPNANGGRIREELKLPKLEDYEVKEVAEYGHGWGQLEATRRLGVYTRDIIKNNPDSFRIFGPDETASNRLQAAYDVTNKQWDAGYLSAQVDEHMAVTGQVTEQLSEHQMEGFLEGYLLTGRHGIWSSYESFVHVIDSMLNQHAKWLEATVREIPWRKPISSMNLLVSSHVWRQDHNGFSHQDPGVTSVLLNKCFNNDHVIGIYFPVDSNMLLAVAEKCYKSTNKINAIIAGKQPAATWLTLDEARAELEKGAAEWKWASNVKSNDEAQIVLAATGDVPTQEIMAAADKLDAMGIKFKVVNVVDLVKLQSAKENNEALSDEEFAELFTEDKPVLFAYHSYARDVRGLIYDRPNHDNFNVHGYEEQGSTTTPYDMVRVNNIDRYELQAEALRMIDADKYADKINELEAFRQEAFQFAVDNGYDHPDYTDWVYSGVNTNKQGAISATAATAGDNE
Description: Kinetics, E4PDH based colorimetric assay for FPK activity (F6P). It is filed as biochemical.

The target in data set [2] is T1, Bifidobacterium adolescentis fructose-6-phosphate phosphoketolase (H2), wild type, SEQ ID NO: 1. The data set can be described thus: Kinetics, Hydroxymate based colorimetric assay for FPK activity (F6P). It is filed as biochemical.
In data set [3] the test system is Collinsella aerofaciens xylulose-5-phosphate/fructose-6-phosphate phosphoketolase (D3), wild type, SEQ ID NO: 2. The data set can be described thus: Kinetics, E4PDH based colorimetric assay for FPK activity (F6P). The class given is biochemical. From the text: Mutagenesis techniques were used to generate engineered phosphoketolases based on one of two template phosphoketolases (the fructose-6-phosphate phosphoketolase from Bifidobacterium adolescentis (strain ATCC 15703 DSM 20083 NCTC 11814 E194a) (“H2”; UniProtKB Accession No. A1A185_BIFAA; SEQ ID NOs: 1 and 3) orthe xylulose-5-phosphate/fructose-6-phosphate phosphoketolase from Collinsella aerofaciens (“D3”; UniProt KB Accession No. A0A174LGR4_9ACTN; SEQ ID NOs: 2 and 4)). Engineered phosphoketolase were generated using rational protein engineering. Structural homology models were constructed for H2 and D3. The substrate docking with Xu5P and F6P were also performed. In total, 2000 variants were designed. There are 1031 constructs designed based on H2, and 969 based on D3. 1999 constructs were received from DNA synthesis. […]
(§1) Further biochemical characterization of selected variants was conducted and the FPK activity of these variants were assessed. […] The kinetics parameters measured during biochemical characterization are summarized below in Table 5. […]
The product of FPK is coupled to NADH production via a one-step enzymatic reaction of its product with E4PDH. NADH production overtime was measured by absorbance at 340 nm. […]
5 μL of half diluted cell lysate was added into 45 μL of reaction buffer. […] The reaction was recorded for a 10-min kinetics reading at 340 nm at room temperature.

Data set [4] shares this test system. The data set can be described thus: Kinetics, Hydroxymate based colorimetric assay for FPK activity (F6P). The class given is biochemical.
Source text: Mutagenesis techniques were used to generate engineered phosphoketolases based on one of two template phosphoketolases (the fructose-6-phosphate phosphoketolase from Bifidobacterium adolescentis (strain ATCC 15703 DSM 20083 NCTC 11814 E194a) (“H2”; UniProtKB Accession No. A1A185_BIFAA; SEQ ID NOs: 1 and 3) orthe xylulose-5-phosphate/fructose-6-phosphate phosphoketolase from Collinsella aerofaciens (“D3”; UniProt KB Accession No. A0A174LGR4_9ACTN; SEQ ID NOs: 2 and 4)). Engineered phosphoketolase were generated using rational protein engineering. Structural homology models were constructed for H2 and D3. The substrate docking with Xu5P and F6P were also performed. In total, 2000 variants were designed. […]
as §1
The product of FPK is coupled to ferric-hydroxamate complex production via hydroxamate reactions of its product with hydroxylamine and ferric chloride. Ferric-hydroxamate complex production was measured by absorbance at 520 nm. […]
Cell lysate preparation was the same described as above. […] The reaction was incubated at room temperature for 10 minutes and then sent to the plate reader for absorption at 520 nm.

Substrate in data set [5]: O=P(O)(O)OC[C@H]1OC(O)(CO)[C@@H](O)[C@@H]1O
The data set can be described thus: Kinetics, E4PDH based colorimetric assay for FPK activity (F6P). The class given is biochemical, Bifidobacterium adolescentis. The note with it: other: F6P. The text has this: Mutagenesis techniques were used to generate engineered phosphoketolases based on one of two template phosphoketolases (the fructose-6-phosphate phosphoketolase from Bifidobacterium adolescentis (strain ATCC 15703 DSM 20083 NCTC 11814 E194a) (“H2”; UniProtKB Accession No. A1A185_BIFAA; SEQ ID NOs: 1 and 3) orthe xylulose-5-phosphate/fructose-6-phosphate phosphoketolase from Collinsella aerofaciens (“D3”; UniProt KB Accession No. A0A174LGR4_9ACTN; SEQ ID NOs: 2 and 4)). Engineered phosphoketolase were generated using rational protein engineering. Structural homology models were constructed for H2 and D3. The substrate docking with Xu5P and F6P were also performed. In total, 2000 variants were designed. There are 1031 constructs designed based on H2, and 969 based on D3. 1999 constructs were received from DNA synthesis. The variants were then tested for XPK and/or FPK activity in in vitro primary and secondary screens as described below.
Further biochemical characterization of selected variants was conducted and the FPK activity of these variants were assessed. 12 hits were selected from the secondary screening results of the phosphoketolase library screen for in vitro biochemical characterization. All 12 of the hits selected are variants based on SEQ ID NO: 1. The kinetics parameters measured during biochemical characterization are summarized below in Table 5. The FPK kinetics assay was based on the E4PDH based Colorimetric Assay described herein for the 12 hits and the two controls (SEQ ID NO: 1 and SEQ ID NO: 2).
The product of FPK is coupled to NADH production via a one-step enzymatic reaction of its product with E4PDH. NADH production overtime was measured by absorbance at 340 nm. The reactions are listed below.
5 μL of half diluted cell lysate was added into 45 μL of reaction buffer. The reaction buffer contained an approximate amount of E4PDH enzyme, 1 mM NADH and 5 mM F6P as substrate for primary screening. 2 mM F6P was used for secondary screening. The reaction was recorded for a 10-min kinetics reading at 340 nm at room temperature.

This note sets out measurements from patent publication US20240218346A1, “PHOSPHOKETOLASE VARIANTS AND METHODS OF USE” (Genomatica, Inc., priority 2021, published 2024).

For orientation: Km means the concentration of substrate that gives half-maximal velocity. As usually defined, the kcat is the number of substrate molecules converted per active site and unit of time at saturation. Consider `O=P(O)(O)OC[C@H]1OC(O)(CO)[C@@H](O)[C@@H]1O` (stereo partly drawn) [F6P, D-fructose-6-phosphate], for which the Km turned out to be 4.89 mM in data set [1], 1.04 mM in data set [2], 27.9 mM in data set [3] and 9.31 mM in data set [4]. The kcat is 30.07 s⁻¹ in data set [1], 5.933 s⁻¹ in data set [2], 7.824 s⁻¹ in data set [3] and 19.57 s⁻¹ in data set [4].

B1: Bifidobacterium adolescentis fructose-6-phosphate phosphoketolase (H2, SEQ ID NO: 1) variant S504A (Bifidobacterium adolescentis ATCC 15703; S503A) (protein)
chain: MMTSPVIGTPWKKLNAPVSEEAIEGVDKYWRAANYLSIGQIYLRSNPLMKEPFTREDVKHRLVGHWGTTPGLNFLIGHINRLIADHQQNTVIIMGPGHGGPAGTAQSYLDGTYTEYFPNITKDEAGLQKFFRQFSYPGGIPSHYAPETPGSIHEGGELGYALSHAYGAVMNNPSLFVPAIVGDGEAETGPLATGWQSNKLINPRTDGIVLPILHLNGYKIANPTILSRISDEELHEFFHGMGYEPYEFVAGFDNEDHLSIHRRFAELFETVFDEICDIKAAAQTDDMTRPFYPMIIFRTPKGWTCPKFIDGKKTEGSWRSHQVPLASARDTEAHFEVLKNWLESYKPEELFDENGAVKPEVTAFMPTGELRIGENPNANGGRIREELKLPKLEDYEVKEVAEYGHGWGQLEATRRLGVYTRDIIKNNPDSFRIFGPDETASNRLQAAYDVTNKQWDAGYLSAQVDEHMAVTGQVTEQLSEHQMEGFLEGYLLTGRHGIWSSYEAFVHVIDSMLNQHAKWLEATVREIPWRKPISSMNLLVSSHVWRQDHNGFSHQDPGVTSVLLNKCFNNDHVIGIYFPVDSNMLLAVAEKCYKSTNKINAIIAGKQPAATWLTLDEARAELEKGAAEWKWASNVKSNDEAQIVLAATGDVPTQEIMAAADKLDAMGIKFKVVNVVDLVKLQSAKENNEALSDEEFAELFTEDKPVLFAYHSYARDVRGLIYDRPNHDNFNVHGYEEQGSTTTPYDMVRVNNIDRYELQAEALRMIDADKYADKINELEAFRQEAFQFAVDNGYDHPDYTDWVYSGVNTNKQGAISATAATAGDNE
What is called kcat/Km is the second-order rate constant that governs catalysis at low substrate concentration. For the molecule B1, in data set [5], the Km was 3.347 mM, the kcat was 26.3 s⁻¹ and the kcat/Km is 7850 M⁻¹ s⁻¹.

B2: Bifidobacterium adolescentis fructose-6-phosphate phosphoketolase (H2, SEQ ID NO: 1) variant Y799I (Bifidobacterium adolescentis ATCC 15703; Y798I) (protein)
chain: MMTSPVIGTPWKKLNAPVSEEAIEGVDKYWRAANYLSIGQIYLRSNPLMKEPFTREDVKHRLVGHWGTTPGLNFLIGHINRLIADHQQNTVIIMGPGHGGPAGTAQSYLDGTYTEYFPNITKDEAGLQKFFRQFSYPGGIPSHYAPETPGSIHEGGELGYALSHAYGAVMNNPSLFVPAIVGDGEAETGPLATGWQSNKLINPRTDGIVLPILHLNGYKIANPTILSRISDEELHEFFHGMGYEPYEFVAGFDNEDHLSIHRRFAELFETVFDEICDIKAAAQTDDMTRPFYPMIIFRTPKGWTCPKFIDGKKTEGSWRSHQVPLASARDTEAHFEVLKNWLESYKPEELFDENGAVKPEVTAFMPTGELRIGENPNANGGRIREELKLPKLEDYEVKEVAEYGHGWGQLEATRRLGVYTRDIIKNNPDSFRIFGPDETASNRLQAAYDVTNKQWDAGYLSAQVDEHMAVTGQVTEQLSEHQMEGFLEGYLLTGRHGIWSSYESFVHVIDSMLNQHAKWLEATVREIPWRKPISSMNLLVSSHVWRQDHNGFSHQDPGVTSVLLNKCFNNDHVIGIYFPVDSNMLLAVAEKCYKSTNKINAIIAGKQPAATWLTLDEARAELEKGAAEWKWASNVKSNDEAQIVLAATGDVPTQEIMAAADKLDAMGIKFKVVNVVDLVKLQSAKENNEALSDEEFAELFTEDKPVLFAYHSYARDVRGLIYDRPNHDNFNVHGYEEQGSTTTPYDMVRVNNIDRYELQAEALRMIDADKYADKINELEAFRQEAFQFAVDNGYDHPDITDWVYSGVNTNKQGAISATAATAGDNE
For the molecule B2, in data set [5], the Michaelis-Menten constant (Km) is listed as 4.53 mM, the kcat stood at 33.6 s⁻¹ and the specificity constant (kcat/Km) stood at 7430 M⁻¹ s⁻¹.
